Values of other authors, collected in patent US20250360221A1 (priority 2025, published 2025).
Entries after “also recorded” stand apart in the source; their conditions may differ. Where a name gives a salt, the structure may show the parent alone. Read-outs that look alike come from different tables or passages of the source.

Legend:
[1] = across the human BBB; transporter type named
[2] = animals, prior art
[3] = humans
μ-opioid receptor = μ-opioid receptor (Homo sapiens, UniProt P35372)
[4] = test system: patients with severe cancer pain
humans = conditions: epidural injections
[5] = test system: patients suffering from cancer pain; conditions: continuous intrathecal infusion for two weeks
proteolytic enzymes = conditions: compared to other opioid peptides
[6] = intrathecal, 3 mg, patients with severe cancer pain

μ-opioid receptor, sequence (P35372 whole entry, species assumed): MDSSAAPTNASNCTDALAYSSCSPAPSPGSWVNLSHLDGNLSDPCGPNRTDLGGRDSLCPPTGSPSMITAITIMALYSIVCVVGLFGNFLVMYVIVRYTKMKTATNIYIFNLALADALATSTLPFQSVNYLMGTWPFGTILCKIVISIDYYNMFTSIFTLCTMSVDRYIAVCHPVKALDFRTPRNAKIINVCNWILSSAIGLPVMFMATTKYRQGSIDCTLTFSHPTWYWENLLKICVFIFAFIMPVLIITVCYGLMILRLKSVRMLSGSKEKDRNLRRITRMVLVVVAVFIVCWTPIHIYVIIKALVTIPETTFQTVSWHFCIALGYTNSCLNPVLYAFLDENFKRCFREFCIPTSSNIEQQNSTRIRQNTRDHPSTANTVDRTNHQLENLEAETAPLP

## CC(C)CCC[C@@H](C)[C@H]1CC[C@H]2[C@@H]3CC=C4C[C@@H](O)CC[C@]4(C)[C@H]3CC[C@]12C [Cholesterol]
[1]
  Active Transport: + lipid

## CC/C=C\C/C=C\C/C=C\C/C=C\C/C=C\C/C=C\CCC(=O)O [DHA, docosahexaenoic acid]
[1]
  Active Transport: + protein

## O=C1O[C@H]([C@@H](O)CO)C(=O)C1=O [Dehydroascorbic acid]
[1]
  Active Transport: + GLUT
[2]
  crossing of the BBB: crosses via GLUT1 transporter the BBB

## CC(=O)Oc1ccc2c3c1O[C@H]1[C@@H](OC(C)=O)C=C[C@H]4[C@@H](C2)N(C)CC[C@@]341 [Diacetylmorphine]
[3]; prior art
  crossing of the BBB: crosses the BBB

## CC/C=C\C/C=C\C/C=C\CCCCCCCC(=O)O [Linolenic acid]
[1]
  Active Transport: + lipid

## O=C1NC(c2ccccc2)(c2ccccc2)C(=O)N1COP(=O)(O)O [fosphenytoin]
[3]; prior art
  crossing of the BBB: crosses the BBB

## Cc1cc(OCC(=O)O)cc(C)c1Cc1ccc(O)c(C(C)C)c1 [sobetirome]
[3]; prior art
  crossing of the BBB: crosses the BBB

## CCOC(=O)CC(O)(CC(=O)OCC)C(=O)OCC [triethyl citrate]
[3]; prior art
  crossing of the BBB: probably crosses the BBB

## α endorphin
μ-opioid receptor
  analgesic activity: not analgesic

## β-endorphin
[4]; intrathecal or epidural administration to humans
  respiratory depression: no evidence of respiratory depression
[4]; [6]
  adverse effects: without major adverse effects
  duration of analgesia: approximately 33.4 hours
humans
  duration of analgesia: 19.5 h
  side effects: without major side effects
[5]
  analgesia: profound analgesia
  tolerance or respiratory depression: did not demonstrate tolerance; also recorded: no evidence of tolerance or respiratory depression
Proteolytic enzymes
  resistance to degradation by proteolytic enzymes / peptidases: resistant to degradation by proteolytic enzymes; also recorded: quite stable and resistant to many peptidases
animals; intracerebroventricular administration
  respiratory depression: reports of respiratory depression
animals; intracerebroventricular injection
  tolerance: tolerance develops
[3]; administered intravenously
  crossing of the BBB: does not cross the BBB

## β-endorphin (1-27) (YGGFMTSEKSQTPLVTLFKNAIIKNAY; Beta-endorphin; UniProt P01189 237-263, looked up, fragment) [shorter fragment of β-endorphin]
μ-opioid receptor
  potency compared to β-endorphin (1-31): less potent

## γ endorphin: γ endorphin, stated not analgesic (YGGFMTSEKSQTPLVTL; Beta-endorphin gamma-endorphin; UniProt P01189 237-253, looked up, fragment)
μ-opioid receptor
  analgesic activity: not analgesic
